In this assay the target is T1, small-conductance Ca2+-activated K+ channels (SK channels, subtype 2) (Homo sapiens, UniProt Q9H2S1).
T1 construct: expressed in transfected cells; host or cells: HEK293
Put plainly: whole-cell patch-clamp of ionic current through SK2 channels in HEK293 cells (SC100). In kind it is cell-based. Conditions: whole-cell patch-clamp, HEK293 cells expressing SK2 channels; concentration that increases the basal current by 100%. The method in brief: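 SC100, the concentration doubling basal current (a 100% increase), was taken from SK2 currents recorded by whole-cell patch-clamp in SK2-expressing HEK293 cells.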
(In general: The patch-clamp technique gives a direct electrical read-out from membranes.)

Regarding `Cc1ccn(-c2cc(C(O)Cc3ccc(C#N)cn3)cc(NC3CCC(F)(F)CC3)n2)n1` (centres unmarked) [NSSy6469, 6-(2-(2-((4,4-difluorocyclohexyl)amino)-6-(3-methyl-1H-pyrazol-1-yl)pyridin-4-yl)-2-hydroxyethyl)nicotinonitrile], the “SC100 (μM)” value is on record as “+++ (+++ means <200 nM)”.
To `Cc1ccn(-c2cc(N3CCOCC3)cc(C(=O)c3ccc(F)cc3)n2)n1` [NSSy6470, (4-fluorophenyl) (6-(3-methyl-1H-pyrazol-1-yl)-4-morpholinopyridin-2-yl) methanone] belongs “+ (+ means >1 uM)”; to `Cc1cc(C)n(-c2cc(N3CC4(COC4)C3)nc(NC3CCC(F)CC3)n2)n1` (centres unmarked) [NSSy6471, 4-(3,5-dimethyl-1H-pyrazol-1-yl)-N-(4-fluorocyclohexyl)-6-(2-oxa-6-azaspiro[3.3]heptan-6-yl)pyrimidin-2-amine], “+ (+ means >1 uM)”.
In the case of `Cc1ccn(-c2cc(N3CCOCC3)cc(C(O)c3ccc(F)cc3)n2)n1` (centres unmarked) [NSSy6472, (4-fluorophenyl) (6-(3-methyl-1H-pyrazol-1-yl)-4-morpholinopyridin-2-yl) methanol] it was “+ (+ means >1 uM)”; in that of `Cc1nn(-c2cc(C(O)c3ncco3)cc(NC3CCC(F)(F)CC3)n2)c(C)c1F` (centres unmarked) [NSSy6473], “++ (++ means 200 nM-1000 nM)”; in that of `Cc1ccn(-c2nc(NC3CCC(O)CC3)cc(N3CCOCC3)n2)n1` (centres unmarked) [NSSy6486], “+ (+ means >1 uM)”.
To `Cc1ccn(-c2cc(S(=O)(=O)N3CCC(F)(F)CC3)cc(N3CCOCC3)n2)n1` [NSSy6489, 4-(4-((4,4-difluoropiperidin-1-yl)sulfonyl)-6-(3-methyl-1H-pyrazol-1-yl)pyridin-2-yl)morpholine] belongs “+ (+ means >1 uM)”; to `Cc1ccn(-c2cc(N3CCOCC3)nc(NC3CCC(F)(F)CC3)n2)n1` [NSSy6499], “+ (+ means >1 uM)”; to `Cc1ccn(-c2nc(NC34CC5CC(CC(O)(C5)C3)C4)cc(N3CCOCC3)n2)n1` [NSSy6511], “+ (+ means >1 uM)”.
As to `Cc1ccn(-c2cc(N3CCOCC3)cc([C@@H](O)c3ccc(F)cc3)n2)n1` [NSSy6513, (S)-(4-fluorophenyl)(6-(3-methyl-1H-pyrazol-1-yl)-4-morpholinopyridin-2-yl)methanol], the “SC100 (μM)” value is recorded as “+ (+ means >1 uM)”.
To `Cc1ccn(-c2cc(N3CCOCC3)cc([C@H](O)c3ccc(F)cc3)n2)n1` [NSSy6514, (R)-(4-fluorophenyl)(6-(3-methyl-1H-pyrazol-1-yl)-4-morpholinopyridin-2-yl)methanol] belongs “+ (+ means >1 uM)”; to `COc1cc(-n2nc(C)cc2C)nc(NC2CCC(F)(F)CC2)n1` [NSSy6519, N-(4,4-difluorocyclohexyl)-4-(3,5-dimethyl-1H-pyrazol-1-yl)-6-methoxy pyrimidin-2-amine], “++ (++ means 200 nM-1000 nM)”; to `Cc1ccn(-c2cc(N3CC4(COC4)C3)nc(NC3CCC(F)(F)CC3)n2)n1` [NSSy6522], “++ (++ means 200 nM-1000 nM)”.
With `Cc1ccnn1-c1cc(N2CC3(COC3)C2)nc(NC2CCC(F)(F)CC2)n1` [NSSy6523], the “SC100 (μM)” value is recorded as “+ (+ means >1 uM)”.
As for `Cc1ccnn1-c1cc(N2CCOCC2)nc(NC2CCC(F)(F)CC2)n1` [NSSy6525], the “SC100 (μM)” value is reported as “+ (+ means >1 uM)”.
In the case of `Cc1ccn(-c2nc(NC3CCC(C#N)CC3)cc(N3CCOCC3)n2)n1` (centres unmarked) [NSSy6526] it was “+ (+ means >1 uM)”; in that of `COC1CCC(Nc2cc(N3CCOCC3)nc(-n3ccc(C)n3)n2)CC1` (centres unmarked) [NSSy6529, N-(4-methoxycyclohexyl)-2-(3-methyl-1H-pyrazol-1-yl)-6-morpholinopyrimidin-4-amine], “+ (+ means >1 uM)”; in that of `Cc1ccn(-c2nc(N[C@H]3CC[C@H](C(N)=O)CC3)cc(N3CCOCC3)n2)n1` [NSSy6539], “+ (+ means >1 uM)”.
In the case of `Cc1ccn(-c2nc(NC3CCC(N(C)C)CC3)cc(N3CCOCC3)n2)n1` (centres unmarked) [NSSy6540] it was “+ (+ means >1 uM)”; in that of `Cc1ccn(-c2nc(NC3CCC(C(N)=O)CC3)cc(N3CCOCC3)n2)n1` (centres unmarked) [NSSy6541], “+ (+ means >1 uM)”; in that of `Cc1ccn(-c2nc(NC3CCC(N)CC3)cc(N3CCOCC3)n2)n1` (centres unmarked) [NSSy6550], “+ (+ means >1 uM)”.
To `Cc1csc(-c2cc(N3CC4(COC4)C3)nc(NC3CCC(F)(F)CC3)n2)n1` [NSSy6558, N-(4,4-difluorocyclohexyl)-4-(4-methylthiazol-2-yl)-6-(2-oxa-6-azaspiro [3.3]heptan-6-yl)pyrimidin-2-amine] belongs “++ (++ means 200 nM-1000 nM)”.
Regarding `Cc1csc(-c2cc(C(O)c3ncco3)cc(NC3CCC(F)(F)CC3)n2)n1` (centres unmarked) [NSSy6563], the “SC100 (μM)” value is given as “++ (++ means 200 nM-1000 nM)”.
In the case of `Cc1ccn(-c2cc(N3CCOCC3)cc(NC3CCC(F)(F)CC3)n2)n1` [NSSy6573] it was “++ (++ means 200 nM-1000 nM)”.
To `COc1cc(-n2ccc(C)n2)nc(NC2CCC(F)(F)CC2)n1` [NSSy6574] belongs “+ (+ means >1 uM)”; to `Cc1ccn(-c2cc(C(O)c3nnc(C)o3)cc(NC3CCC(F)(F)CC3)n2)n1` (centres unmarked) [NSSy6576], “++ (++ means 200 nM-1000 nM)”; to `Cc1ccn(-c2cc(N3CC4(CCC4)C3)nc(NC3CCC(F)(F)CC3)n2)n1` [NSSy6580], “+ (+ means >1 uM)”.
As for `Cc1ccn(-c2cc(N3CCC4(CCOCC4)C3)nc(NC3CCC(F)(F)CC3)n2)n1` [NSSy6581], the “SC100 (μM)” value was “+ (+ means >1 uM)”.
With `Cc1ccn(-c2cc(N3CC4CCCC4C3)nc(NC3CCC(F)(F)CC3)n2)n1` (centres unmarked) [NSSy6584], the “SC100 (μM)” value was “+ (+ means >1 uM)”.
For `Cc1ccn(-c2cc(N3CC4COCC4C3)nc(NC3CCC(F)(F)CC3)n2)n1` (centres unmarked) [NSSy6585], the “SC100 (μM)” value was “+ (+ means >1 uM)”.
With `Cc1cc(-c2nc(C)cs2)nc(NC2CCC(F)(F)CC2)n1` [NSSy6590], the “SC100 (μM)” value was “++ (++ means 200 nM-1000 nM)”.
`Cc1cc(-n2ccc(C(F)(F)F)n2)nc(NC2CCC(F)(F)CC2)n1` [NSSy6591]: the “SC100 (μM)” value is “+ (+ means >1 uM)”.
Turning to `Cc1cc(-n2nc(C)cc2C)nc(NC2CCC(F)(F)CC2)n1` [NSSy6593], the “SC100 (μM)” value is reported as “++ (++ means 200 nM-1000 nM)”.
In the case of `CC(=O)N1CCN(c2cc(-c3nc(C)cs3)nc(NC3CCC(F)(F)CC3)n2)CC1` [NSSy6598, 1-(4-(2-((4,4-difluorocyclohexyl)amino)-6-(4-methylthiazol-2-yl)pyrimidin-4-yl)piperazin-1-yl)ethan-1-one] it was “++ (++ means 200 nM-1000 nM)”.
As for `CC(=O)N1CCN(c2cc(-n3ccc(C(F)(F)F)n3)nc(NC3CCC(F)(F)CC3)n2)CC1` [NSSy6607], the “SC100 (μM)” value is given as “++ (++ means 200 nM-1000 nM)”.
In the case of `COC(C)c1cc(-n2nc(C)cc2C)nc(NC2CCC(F)(F)CC2)n1` (centres unmarked) [NSSy6612] it was “+ (+ means >1 uM)”; in that of `COC(C)c1cc(-n2ccc(C(F)(F)F)n2)nc(NC2CCC(F)(F)CC2)n1` (centres unmarked) [NSSy6613], “+ (+ means >1 uM)”; in that of `CC(O)c1cc(-n2ccc(C(F)(F)F)n2)nc(NC2CCC(F)(F)CC2)n1` (centres unmarked) [NSSy6614], “+ (+ means >1 uM)”.
Consider `CCOc1cc(-n2ccc(C)n2)nc(NC2CCC(F)(F)CC2)n1` [NSSy6625], for which the “SC100 (μM)” value is “+ (+ means >1 uM)”.
To `CC(=O)N1CCN(c2cc(-n3ccc(C)n3)nc(NC3CCC(F)(F)CC3)n2)CC1` [NSSy6629, 1-(4-(2-((4,4-difluorocyclohexyl)amino)-6-(3-methyl-1H-pyrazol-1-yl)pyrimidin-4-yl)piperazin-1-yl)ethan-1-one] belongs “++ (++ means 200 nM-1000 nM)”; to `Cc1cc(C)n(-c2cc(N3C[C@H]4C[C@@H]3CO4)nc(NC3CCC(F)(F)CC3)n2)n1` [NSSy6638], “++ (++ means 200 nM-1000 nM)”; to `Cc1cc(C)n(-c2cc(N3C[C@@H]4C[C@H]3CO4)nc(NC3CCC(F)(F)CC3)n2)n1` [NSSy6639], “+ (+ means >1 uM)”.
To `Cc1cc(C)n(-c2cc(N3CC4CCC(C3)O4)nc(NC3CCC(F)(F)CC3)n2)n1` [NSSy6644] belongs “+ (+ means >1 uM)”; to `Cc1ccn(-c2cc(C(C)O)nc(NC3CCC(F)(F)CC3)n2)n1` (centres unmarked) [NSSy6650], “+ (+ means >1 uM)”.
On to `COC(C)c1cc(-n2ccc(C)n2)nc(NC2CCC(F)(F)CC2)n1` (centres unmarked) [NSSy6651], for which the “SC100 (μM)” value is “+ (+ means >1 uM)”.
Consider `Cc1cc(C)n(-c2cc(-n3nc(C)cc3C)nc(NC3CCC(F)(F)CC3)n2)n1` [NSSy6654], for which the “SC100 (μM)” value is listed as “+ (+ means >1 uM)”.
As to `COCc1cc(-n2ccc(C(F)(F)F)n2)nc(NC2CCC(F)(F)CC2)n1` [NSSy6674, N-(4,4-difluorocyclohexyl)-4-(methoxymethyl)-6-(3-(trifluoromethyl)-1H-pyrazol-1-yl)pyrimidin-2-amine], the “SC100 (μM)” value is listed as “+ (+ means >1 uM)”.
In the case of `COCCOc1cc(-n2ccc(C)n2)nc(NC2CCC(F)(F)CC2)n1` [NSSy6675] it was “+ (+ means >1 uM)”.
To `Cc1ccn(-c2cc(N(C)C)nc(NC3CCC(F)(F)CC3)n2)n1` [NSSy6677] belongs “+ (+ means >1 uM)”.
To `Cc1ccn(-c2cc(N3CCNCC3)nc(NC3CCC(F)(F)CC3)n2)n1` [NSSy6679] belongs “++ (++ means 200 nM-1000 nM)”; to `Cc1ccn(-c2cc(C(=O)O)nc(NC3CCC(F)(F)CC3)n2)n1` [NSSy6684, 2-((4,4-difluorocyclohexyl)amino)-6-(3-methyl-1H-pyrazol-1-yl)pyrimidine-4-carboxylic acid], “+ (+ means >1 uM)”.
Consider `Cc1ccn(-c2cc(OCCN(C)C)nc(NC3CCC(F)(F)CC3)n2)n1` [NSSy6686], for which the “SC100 (μM)” value is given as “++ (++ means 200 nM-1000 nM)”.
Take `CNc1cc(-n2ccc(C)n2)nc(NC2CCC(F)(F)CC2)n1` [NSSy6688]: the “SC100 (μM)” value is on record as “++ (++ means 200 nM-1000 nM)”.

The values are drawn from patent US10774064B2 (Cadent Therapeutics, Inc., priority 2016, dated 2020).
